Measured values published in PMC6934184, “Selective DNA-PKcs inhibition extends the therapeutic index of localized radiotherapy and chemotherapy” (The Journal of Clinical Investigation, 2019).

Target: T1, CDK5 (Inactive) (Homo sapiens, UniProt Q00535)
T1 construct: purchased Thermo Fisher Scientific (Life Technologies) SelectScreen
Assay: SelectScreen LanthaScreen
Format: binding
Conditions: read-out: % displacement
Outline: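 Percent values come from Thermo SelectScreen profiling of NU5455, combining activity and binding assays. CSF1R was run in Z'LYTE format at Km app ATP, and CAMK1 in Adapta format with ATP listed at 10.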

T1 sequence (Q00535 whole entry): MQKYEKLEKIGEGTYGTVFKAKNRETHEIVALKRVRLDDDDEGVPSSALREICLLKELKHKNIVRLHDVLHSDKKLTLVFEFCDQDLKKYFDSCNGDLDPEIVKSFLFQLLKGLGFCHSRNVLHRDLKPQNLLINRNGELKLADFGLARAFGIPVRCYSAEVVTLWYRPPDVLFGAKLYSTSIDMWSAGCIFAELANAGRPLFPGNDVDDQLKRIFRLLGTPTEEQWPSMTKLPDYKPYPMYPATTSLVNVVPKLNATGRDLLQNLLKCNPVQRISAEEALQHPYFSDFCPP

Compound: CN(C(=O)CN1CCOCC1)c1ccc2sc3c(-c4cccc5c(=O)cc(N6CC7CCC(C6)O7)oc45)cccc3c2c1 [NU5455]
- inhibition at 1 µM: -2.1%
